According to patent publication US20230055568A1, “THERAPEUTIC AGENT FOR MYALGIC ENCEPHALOMYELITIS/CHRONIC FATIGUE SYNDROME” (MITSUBISHI TANABE PHARMA CORPORATION, priority 2020, published 2023):
“Also recorded” adds a separate entry of the source.

Test system: water-immersion stress loaded rat (fatigue rat) model
Assay: weight-loaded forced swimming test in ME/CFS animal model (water-immersion stress loaded fatigue rat)
Format: in vivo
Conditions: Slc:SD fatigue rat, compared to fatigue control group, hydrochloride
Source text: A […] encephalomyelitis/chronic fatigue syndrome (ME/CFS)-improving effect by the administration of the compound (amiselimod hydrochloride) relating to the present invention was verified as follows according to the method of Tanaka et al. (Establishment and assessment of a rat model fatigue. Neuroscience letters 2003, 352: 159-162) using a water-immersion stress loaded rat (fatigue rat) model. The animal used was 9-week-old Slc:SD rat. The rats were bred (water-immersion breeding) for 6 days in a plastic cage (W: 445×D: 276×H: 204 mm) containing tap water (water temperature: 23±1° C.) to a height of 1.5 cm, and a weight-loaded forced swimming test was conducted. on the final day. In the weight-loaded forced swimming test, a rat with a weight equivalent to 8% of its body weight attached to its tail was placed in a circular water tank (diameter: 18 cm, height: 70 cm, water depth: 40 cm, water temperature: 23±1° C.), and the time from the start of swimming until the rat's nose sinks from the water surface for 20 seconds was measured. The weight-loaded forced swimming test was conducted blindly. Amiselimod hydrochloride (0.1, 0.3 and 1 mg/kg administration) was orally administered once a day for 6 days from the start date of the water-immersion breeding. As control groups, a normal control group for normal breeding and a fatigue control group for water-immersion breeding were set, and the vehicle (0.5% HPMC) was administered to both groups. The number of cases was 10 in each group.

SMILES: CCCCCCCOc1ccc(CCC(N)(CO)CO)cc1C(F)(F)F.Cl [amiselimod hydrochloride, 2-amino-2-[2-(4-heptyloxy-3-trifluoromethylphenyl)ethyl]propane-1,3-diol hydrochloride]
- swimming time in weight-loaded forced swimming test (0.1 mg/kg orally once a day for 6 days, 0.1 mg/kg): significant difference was observed; also recorded: significantly prolonged the swimming time
- swimming time in weight-loaded forced swimming test (0.3 mg/kg orally once a day for 6 days, 0.3 mg/kg): significant difference was observed; also recorded: significantly prolonged the swimming time
- swimming time in weight-loaded forced swimming test (1 mg/kg orally once a day for 6 days, 1 mg/kg): significant difference was observed; also recorded: significantly prolonged the swimming time
